The record followed here is patent US7968563B2, “Oxime and hydroxylamine substituted imidazo[4,5-c] ring compounds and methods” (3M Innovative Properties Company, priority 2005, dated 2011).

Molecules are shown by their SMILES. Counter-ions that a name gives are not always drawn.

By melting point is commonly meant the temperature of the solid-liquid transition. Turning to `CONCc1nc2c(N)nc3ccccc3c2n1CC(C)(C)O` (as salt: hydrochloride) [Example 16, 1-(2-Hydroxy-2-methylpropyl)-2-{[methoxylamino]methyl}-1H-imidazo[4,5-c]quinolin-4-amine; hydrochloride], the melting point fell in the range of 255 to 257 °C. As for `CON=Cc1nc2c(N)nc3ccccc3c2n1CC(C)C` [Example 4, 4-Amino-1-(2-methylpropyl)-1H-imidazo[4,5-c]quinoline-2-carbaldehyde O-methyloxime], the figure is 181 to 183 °C; as for `CON=C(C)CCc1nc2c(N)nc3ccccc3c2n1CC(C)(C)O` [Example 5, 4-[4-Amino-1-(2-hydroxy-2-methylpropyl)-1H-imidazo[4,5-c]quinolin-2-yl]butan-2-one O-methyloxime], 182 to 184 °C; as for `CONCc1nc2c(N)nc3cc(OCc4ccccc4)ccc3c2n1CC1CCOCC1` [Example 6, 7-(Benzyloxy)-2-[(methoxyamino)methyl]-1-(tetrahydro-2H-pyran-4-ylmethyl)-1H-imidazo[4,5-c]quinolin-4-amine], 190 to 193 °C. The result for `CON(C)Cc1nc2c(N)nc3cc(OCc4ccccc4)ccc3c2n1CC1CCOCC1` [Example 7, 7-(Benzyloxy)-2-{[methoxy(methyl)amino]methyl}-1-(tetrahydro-2H-pyran-4-ylmethyl)-1H-imidazo[4,5-c]quinolin-4-amine] reads 159 to 161 °C. `CON(Cc1nc2c(N)nc3cc(OCc4ccccc4)ccc3c2n1CC1CCOCC1)S(C)(=O)=O` [Example 8, N-{[4-Amino-7-(benzyloxy)-1-(tetrahydro-2H-pyran-4-ylmethyl)-1H-imidazo[4,5-c]quinolin-2-yl]methyl}-N-methoxymethanesulfonamide] gave a melting point of 195 to 197 °C. As for `CONCc1nc2c(N)nc(C)c(C)c2n1CC(C)C` [Example 9, 1-Isobutyl-2-[(methoxyamino)methyl]-6,7-dimethyl-1H-imidazo[4,5-c]pyridin-4-amine], the figure is 154 to 156 °C. In turn, `CON(C)Cc1nc2c(N)nc(C)c(C)c2n1CC(C)C` [Example 10, 1-Isobutyl-2-{[methoxy(methyl)amino]methyl}-6,7-dimethyl-1H-imidazo[4,5-c]pyridin-4-amine] had a melting point of 132 to 134 °C. As for `CON(Cc1nc2c(N)nc(C)c(C)c2n1CC(C)C)C(=O)C1CC1` [Example 11, N-[(4-Amino-1-isobutyl-6,7-dimethyl-1H-imidazo[4,5-c]pyridin-2-yl)methyl]-N-methoxycyclopropanecarboxamide], the figure is 135 to 137 °C; as for `CONCc1nc2c(N)nc3ccccc3c2n1CC1(O)CCC1` [Example 12, 1-({4-Amino-2-[(methoxyamino)methyl]-1H-imidazo[4,5-c]quinolin-1-yl}methyl)cyclobutanol], 178 to 181 °C. As for `CON(C)Cc1nc2c(N)nc3ccccc3c2n1CC1(O)CCC1` [Example 13, 1-[(4-Amino-2-{[methoxy(methyl)amino]methyl}-1H-imidazo[4,5-c]quinolin-1-yl)methyl]cyclobutanol], the figure is 219 to 221 °C; as for `CO/N=C/c1nc2c(N)nc(C)c(C)c2n1CC(C)C` [Example 14, 4-Amino-1-isobutyl-6,7-dimethyl-1H-imidazo[4,5-c]pyridine-2-carbaldehyde O-methyloxime], 179 to 181 °C. As for `CON(C)Cc1nc2c(N)nc3ccccc3c2n1CC(C)(C)O` [Example 15, 1-(2-Hydroxy-2-methylpropyl)-2-{[methoxy(methyl)amino]methyl}-1H-imidazo[4,5-c]quinolin-4-amine], the figure is 220 to 222 °C.

Consider `CONCc1nc2cnc3ccccc3c2n1CC1CCOCC1` [Example 17, 2-[(Methoxyamino)methyl]-1-(tetrahydro-2H-pyran-4-ylmethyl)-1H-imidazo[4,5-c]quinoline], for which the melting point is 58 to 63 °C. The result for `CON(C)Cc1nc2cnc3ccccc3c2n1CC1CCOCC1` [Example 18, 2-{[Methoxy(methyl)amino]methyl}-1-(tetrahydro-2H-pyran-4-ylmethyl)-1H-imidazo[4,5-c]quinoline] reads 142 to 144 °C; that for `CONCc1nc2c(N)nc3ccccc3c2n1CC1CCOCC1` [Example 19, 2-[(Methoxyamino)methyl]-1-(tetrahydro-2H-pyran-4-ylmethyl)-1H-imidazo[4,5-c]quinolin-4-amine], 169 to 171 °C.

Consider `CON(C)Cc1nc2c(N)nc3ccccc3c2n1CC1CCOCC1` [Example 20, 2-{[Methoxy(methyl)amino]methyl}-1-(tetrahydro-2H-pyran-4-ylmethyl)-1H-imidazo[4,5-c]quinolin-4-amine], for which the melting point fell in the range of 223 to 226 °C.
